Measurements as given in paper PMC5839409, “Targeting intracellular B2 receptors using novel cell-penetrating antagonists to arrest growth and induce apoptosis in human triple-negative breast cancer” (Oncotarget, 2018).
Where two headings read alike, the source gives them in different places. Square brackets hold non-standard residues; d marks the D form. Ends that are not written are not given here. Peptide text beside a SMILES is read from it. Oic = O=C(O)[C@@H]1C[C@@H]2CCCC[C@@H]2N1; Hyp = O=C(O)[C@@H]1C[C@@H](O)CN1; dTic = O=C(O)[C@H]1Cc2ccccc2CN1; 2Thi = N[C@@H](Cc1cccs1)C(=O)O

Legend:
MDA-MB-231 cells [1] = test: Annexin V/PI apoptosis and beta-galactosidase senescence assays; type: cell-based, human
Experimental: The effect of B2RAs on cellular senescence was assessed using the Senescence β-Galactosidase Staining Kit (Cell Signaling). MDA-MB-231 cells were plated at 500 000 cells/well in 6-well plates, and serum-starved right before the beginning of treatments. Cells were treated with and without the B2RAs at the indicated concentrations for 72 h. At the end of treatment, surviving cells were fixed with 2% formaldehyde, 0.2% glutaraldehyde for 15 min at room temperature. Fixed cells were then washed and stained with fresh senescence-associated β-galactosidase stain solution (sodium phosphate buffer, pH 6.0, containing 1mg of X-gal (5-bromo-4-chloro-3-indolyl-β-d-galactopyranoside)/ml 40 mM citric acid, 5 mM potassium ferrocyanide, 5 mM potassium ferricyanide, 150 mM NaCl, 2 mM MgCl2) at 37°C. Staining was detected by light microscopy. As a positive control for senescence, we serum starved porcine cerebral microvascular endothelial cells (pCMVEC) (kindly provided by S Chemtob) for 48 h.
MDA-MB-231 and COS-1 cells were plated at 500,000/well in 6-well plates containing medium (10% FBS/DMEM), and allowed to adhere for about 18 h. On the next day, cells were serum-starved and then treated with and without the B2RAs at the indicated concentrations for 24 h. To assess induction of apoptosis due to treatment, we used the Annexin-V-FLUOS Staining kit (Roche) according to manufacturer’s specifications. Briefly, at the end of treatments, cells were harvested, rinsed and incubated in 100 µl of Annexin-V-FLUOS labeling solution (containing 2 µl of Annexin-V-Fluos reagent and 1 µl of PI (15 µg/ml)) for 15 min at room temperature. Cells were analyzed on a FACSCanto II flow cytometer (BD Biosciences). Early stage apoptosis was measured using annexin V-Fluos (RocheMolecular Biochemicals) in conjunction with PI (Sigma) to distinguish among early apoptosis and late apoptosis/necrosis. Bar diagram showing the distribution of early, late/necrotic cell populations.

MDA-MB-231 cells [2] = test: MTT cytotoxicity (cell viability) assay; type: cell-based, human; settings: for cytotoxic effect: at a concentration of 100 µM
Experimental: (§1) Cell proliferation assay on MDA-MB-231 cells was determined with colorimetric MTT as we described. Briefly, cells were seeded in a 96 wells plate at 2,000 cells/well in DMEM media supplemented with 10% FBS for 24h at 37°C. Cells were then incubated with and without the B2RAs at the indicated concentrations for the time shown. At the end of treatment period, MTT (0.25 mg/ml) was added to the cells and incubated for 1h30 at 37°C. Thereafter, the cell medium was removed, the formazan product solubilized in acidified isopropanol (100 µl of 1N HCl/anhydrous isopropanol 1:25) and the absorbance determined at 570 nm with an ELISA microplate reader (Spectra Max Plus, Molecular Devices, Sunnyvale, CA). For assessing the cytotoxicity of B2RAs and chemotherapeutic agents (carmustine, doxorubicin, carboplatin, temozolomide and paclitaxel), cells were grown to confluency in multi-well plates and exposed to starving media (DMEM without FBS) for 24h before beginning of the antagonist treatment. Cells were then incubated with MTT and treated exactly as described above. Cell viability was expressed as a percentage of optical density (OD) values obtained upon treatment relative to control.

MDA-MB-231 cells [3] = test: PI staining cell cycle analysis by flow cytometry; type: cell-based, human; settings: 24 h treatment; HOE 140 up to 100 μM
Experimental: MDA-MB-231 were plated at 500,000/plate in 10 cm plates containing medium (10% FBS/DMEM), and allowed to adhere for about 18 h. Thereafter, cells were serum-starved and treated with and without the B2RAs at the indicated concentrations for 24 h. At the end of treatments, cells were harvested, rinsed and fixed with ice cold ethanol 95%, for 2 h at 4°C. Fixed cells were rehydrated with 800 µl PBS for 30 min, and then washed again with PBS to remove all traces of ethanol. Cells were treated with RNase for 30 min prior to staining. PI was added to cell suspension at a concentration of 15 µg/ml and incubated overnight at 4°C. PI staining was assessed by flow cytometry using a FACSCanto II flow cytometer (BD Biosciences).

MDA-MB-231 cells [4] = test: Western blot of cell cycle, apoptosis and p38 proteins; type: cell-based, human
Experimental: For western blot analysis, appropriate amount of cell lysates or membrane and nuclear fractions (25–50 µg protein) were denatured, resolved on 9–12% SDS–PAGE and electrotransferred onto PVDF membranes. Blots were blocked using 5% nonfat dry milk and probed using appropriate primary antibodies in blocking buffer overnight at 4°C.

[5] = Distribution coefficient n-octanol/PBS pH 7.4, shake flask
Experimental: Equal volumes of octanol and PBS (137 mM NaCl, 2.7 mM KCl, 10 mM Na2HPO4, 2 mM KH2PO4, pH 7.4), were mixed and allowed to equilibrate for 24h. The layers were then separated and stored at 4°C. At testing, the compounds (200 µM) was added to 200 µl of aqueous phase and mixed with an equal volume of octanol by vortexing for 2 min. The octanol/buffer solution was centrifuged for 5 min at 1000 x g. After separation into aqueous and octanol phases, compound content of the aqueous and octanol phases was quantified by RP-HPLC (Agilent1100 series). […] All octanol/buffer distribution studies were performed in duplicate. The octanol/buffer coefficient was calculated as the ratio of octanol layer to the buffer layer.

MDA-MB-231 cells [6] = test: Anchorage-dependent clonogenic assay; type: cell-based, human; settings: for colony formation (antagonist effect): 1 to 100 µM (FR173657 up to 25 µM), 10-14 days
Experimental: MDA-MB-231 cells were plated at 200 cells/well in a six-well dish in 2 ml DMEM medium containing 10% FBS. […] After 10 to 14 days, colonies were fixed and stained with 0.5% methylene blue in 50% ethanol. Excess of staining solution was removed carefully with tap water and the plates were dried overnight. Colony counting and densitometric analyses (to measure total colony numbers and surface areas) were performed using the Image Pro Plus 5.1 software.

MDA-MB-231 cells [7] = test: MTT proliferation assay; type: cell-based, human; settings: B2R shRNA knockdown MDA-MB-231 cells vs scrambled shRNA
Experimental: as §1

MDA-MB-231 cells [8] = test: Cellular incorporation of B2RAs by LC-MS/MS; settings: 2.5 µM antagonist, 37°C
Experimental: Permeability of MDA-MB-231 cells to B2RAs was evaluated by either confocal microscopy or LC-MS/MS analyses. […] Mass spectrometry. […] At the end of treatments, cells underwent an acid wash to facilitate the release of surface bound ligands. Cell contents were released from hypotonic lysis using a 40:60 mixture of 15 mM Tris-HCl pH 7.4 / methanol. Cell lysates were next sonicated and subjected to protein precipitation following addition of 0.1% v/v formic acid. Precipitated proteins were removed by centrifugation and supernatants were concentrated using a Speedvac centrifugal evaporator. The sample was subjected to quantification using LC-MS/MS on a triple quadrupole mass spectrometer (Agilent G6410B). A calibration curve made from nine different concentrations of the reference compounds dissolved in suitable HPLC mobile phase solvents, was used to estimate antagonist intracellular content in each sample. The limit of quantification was 75 fmol (1 nM/75 µl).

MDA-MB-231 cells [9] = test: Drug-drug synergy experiments (MTT, combination index); type: cell-based, human; settings: IC25 ratios, 72h, CalcuSyn
Experimental: Interactions (synergy, additive, antagonistic activities) between CP-B2RAs (FR173657 and NG68) and chemotherapeutic drugs (doxorubicin and paclitaxel) were evaluated using MTT standard assays. Twenty-four hours after seeding, cells were treated with CP-B2RAs, the other testing drug, or in combination. For combination testing, CP-B2RAs or the other testing drugs were added to plate in triplicate wells in ratios of IC25 (IC25A: IC25B), and cells are incubated in drug-treated medium for 72h and cell viability determined by MTT. Synergy was determined by calculating combination index (CI) value with the formula CI = (CA,X / ICx,A) + (CB,X / ICx,B), where CA,X and CB,X are concentrations of drug A and drug B used in combination to achieve x% drug effect. ICx,A and ICx,B are concentrations for single agents to achieve the same effect. A CI of less than, equal to, and more than 1 indicates synergy, additivity, and antagonism, respectively.

[10] = Homo sapiens, MDA-MB-231, MTT assay after 72h drug exposure, means ± s.e.m., n = 6 to 8, read-out: IC50 values (cytocidal activity)
[11] = 24h treatment, whole-cell lysates

Question: For “DTat: vector alone; modified HIV-1 Tat peptide sequence GRKKRRQRRR in D-configuration (G[dR][dK][dK][dR][dR][dQ][dR][dR][dR])”, which “intrinsic activity of vector alone” value (MDA-MB-231 cells [1]; up to 100 μM, in any of the above assays) is on record?
Answer: did not exhibit intrinsic activity

Question: With `Cn1nnc2c(C(N)=O)ncn2c1=O` [Temozolomide (Temodar), Temozolomide] as the compound, how does the IC50 (MDA-MB-231 cells [2]; [10]) read?
Answer: > 100 µM

Question: What about the cytotoxic effect (MDA-MB-231 cells [2]) of the same compound?
Answer: did not show significant cytotoxic effect

Question: For `O=NN(CCCl)C(=O)NCCCl` [BCNU (carmustine), carmustine], which IC50 (MDA-MB-231 cells [2]; [10]) is on record?
Answer: 62 ± 1 µM

Question: What does the source list for `N=C(N)NCCC[C@H](NC(=O)[C@@H]1C[C@@H]2CCCC[C@@H]2N1C(=O)[C@H]1Cc2ccccc2CN1C(=O)[C@H](CO)NC(=O)[C@H](Cc1cccs1)NC(=O)CNC(=O)[C@@H]1C[C@@H](O)CN1C(=O)[C@@H]1CCCN1C(=O)[C@H](CCCNC(=N)N)NC(=O)[C@@H](CCCNC(=N)N)NC(=O)CNC(=O)CNC(=O)CNC(=O)[C@@H](CCCNC(=N)N)NC(=O)[C@@H](CCCNC(=N)N)NC(=O)[C@@H](CCCNC(=N)N)NC(=O)[C@@H](CCC(N)=O)NC(=O)[C@@H](CCCNC(=N)N)NC(=O)[C@@H](CCCNC(=N)N)NC(=O)[C@@H](CCCCN)NC(=O)[C@@H](CCCCN)NC(=O)[C@@H](CCCNC(=N)N)NC(=O)CN)C(=O)O` [D-Tat-HOE 140 (NG68)] (H-G[dR][dK][dK][dR][dR][dQ][dR][dR][dR]GGG[dR]RP[Hyp]G[2Thi]S[dTic][Oic]R-OH; N-terminus and C-terminus assumed)?
Answer: cell cycle distribution (MDA-MB-231 cells [3]): tend to induce G0/G1 cell cycle arrest; expression of BAD and p27Kip1 (MDA-MB-231 cells [4]; [11]): increased expression; levels of MAPK and cyclin A (MDA-MB-231 cells [4]; [11]): decreased the levels of MAPK and cyclin A; phosphorylation of p38 (MDA-MB-231 cells [4]; over time): significantly increased the phosphorylation; logD ([5]; pH 7.4, Distribution coefficient log D, n-octanol/PBS (pH 7.4), shake flask, RP-HPLC quantification): -3.02; induction of apoptosis / senescence (MDA-MB-231 cells [1]; Annexin V and active caspase-3 positivity 24h, β-galactosidase 72h): underwent apoptosis, but not senescence; colony formation (antagonist effect) (MDA-MB-231 cells [6]): concentration-responsive clonal repression; cytostatic activity after B2R downregulation (MDA-MB-231 cells [7]): significantly attenuated; Cellular incorporation (MDA-MB-231 cells [8]; 15 min): 5 pmol/10^6 cells; Cellular incorporation (MDA-MB-231 cells [8]; 4 h): 14 pmol/10^6 cells; combination index (CI) (MDA-MB-231 cells [9]; combination with doxorubicin): below 1; combination index (CI) (MDA-MB-231 cells [9]; combination with paclitaxel): ~1

Question: Which IC50 (MDA-MB-231 cells [2]; [10]) does the source give for `CC(=O)O[C@H]1C(=O)[C@@]2(C)[C@H]([C@H](OC(=O)c3ccccc3)[C@]3(O)C[C@H](OC(=O)[C@H](O)[C@@H](NC(=O)c4ccccc4)c4ccccc4)C(C)=C1C3(C)C)[C@]1(OC(C)=O)CO[C@@H]1C[C@@H]2O` [Paclitaxel (Taxol), Paclitaxel] here?
Answer: 10 ± 1 µM

Question: With `C[C@H](CCC(=O)N[C@H](CCCNC(=N)N)C(=O)N[C@@H](CCCNC(=N)N)C(=O)N1CCC[C@H]1C(=O)N1C[C@H](O)C[C@H]1C(=O)NCC(=O)N[C@@H](Cc1cccs1)C(=O)N[C@@H](CO)C(=O)N1Cc2ccccc2C[C@@H]1C(=O)N1[C@H](C(=O)N[C@@H](CCCNC(=N)N)C(=O)O)C[C@@H]2CCCC[C@@H]21)[C@H]1CC[C@H]2[C@@H]3[C@H](O)C[C@@H]4C[C@H](O)CC[C@]4(C)[C@H]3C[C@H](O)[C@]12C` [Cholic-HOE 140 (NG134)] as the compound, how does the IC50 (MDA-MB-231 cells [2]; 72 h) read?
Answer: > 100 µM

Question: And the “colony formation (antagonist effect)” value (MDA-MB-231 cells [6])?
Answer: concentration-responsive clonal repression

Question: What about the Cellular incorporation (MDA-MB-231 cells [8]; 15 min) of the same compound?
Answer: 13 pmol/10^6 cells

Question: What about the Cellular incorporation (MDA-MB-231 cells [8]; 4 h) of the same compound?
Answer: 22 pmol/10^6 cells

Question: For `N.N.O=C([O-])C1(C(=O)[O-])CCC1.[Pt+2]` [Carboplatin], which IC50 (MDA-MB-231 cells [2]; MTT assay after 72h drug exposure, means ± s.e.m., n = 6 to 8, read-out: IC50 values (cytocidal activity)) is on record?
Answer: > 100 µM

Question: And the cytotoxic effect (MDA-MB-231 cells [2])?
Answer: did not show significant cytotoxic effect

Question: For `NC(N)=NCCC[C@@H](N)C(=O)N[C@@H](CCCN=C(N)N)C(=O)N1CCC[C@H]1C(=O)N1C[C@H](O)C[C@H]1C(=O)NCC(=O)N[C@@H](Cc1cccs1)C(=O)N[C@@H](CO)C(=O)N1Cc2ccccc2C[C@@H]1C(=O)N1[C@H](C(=O)N[C@@H](CCCN=C(N)N)C(=O)O)C[C@@H]2CCCC[C@@H]21` [HOE 140], which IC50 (MDA-MB-231 cells [2]; 72 h) is on record?
Answer: > 100 µM

Question: And the logD ([5]; pH 7.4)?
Answer: -3.06

Question: What about the Cellular incorporation (MDA-MB-231 cells [8]; 15 min) of the same compound?
Answer: 0 pmol/10^6 cells

Question: What about the Cellular incorporation (MDA-MB-231 cells [8]; 4 h) of the same compound?
Answer: 0 pmol/10^6 cells

Question: What about the Cellular incorporation (MDA-MB-231 cells [8]; 24 h) of the same compound?
Answer: 0 pmol/10^6 cells

Question: Which IC50 (MDA-MB-231 cells [2]; [10]) does the source give for `COc1cccc2c1C(=O)c1c(O)c3c(c(O)c1C2=O)C[C@@](O)(C(=O)CO)C[C@@H]3O[C@H]1C[C@H](N)[C@H](O)[C@H](C)O1` [Adriamycin (doxorubicin), doxorubicin] here?
Answer: 2 ± 1 µM

Question: Which “clonogenicity, inhibitor alone” value (MDA-MB-231 cells [6]; 10 µM, 14 days) does the source give for `C[S+]([O-])c1ccc(-c2nc(-c3ccncc3)c(-c3ccc(F)cc3)[nH]2)cc1` (stereo not drawn) [SB203580] here?
Answer: had no effect
